# Measured values reported in publication PMC9007951, “Systematically evaluating DOTATATE and FDG as PET immuno-imaging tracers of cardiovascular inflammation” (Scientific Reports, 2022).
# Like-named read-outs stand apart in the source and are kept apart here.
# Assay: Timed organ biodistribution of [^64Cu]Cu-DOTATATE by ex vivo gamma counting
# Format: in vivo, mice
# Details: mouse, intravenous, 1.85 MBq, total radioactivity, median (IQR); for tissue uptake at 2 h: 120 min after injection; for tissue uptake at 1 min: 1 min after injection; for tissue uptake at 0.5 h: 30 min after injection; for tissue uptake at 5 min: 5 min after injection; for tissue uptake at 1 h: 60 min after injection; for tissue uptake at 0.25 h: 15 min after injection
# Procedure: Wild-type and atherosclerotic animals were injected with approximately 1.85 MBq of [^64Cu]Cu-DOTATATE and euthanized at either 1, 5, 15, 30, 60 or 120 min after injection (Supplementary Fig. S1A) to evaluate the tracer’s biodistribution. After euthanasia, an insulin syringe was used to collect blood samples from the right ventricle. Blood samples were used for the establishment of pharmacokinetics profile. Mice were then perfused with 20 mL of phosphate-buffered saline (PBS) and tissues of interest (heart, aorta, bone marrow, spleen, liver, stomach, bladder, kidneys, intestines, lungs, adrenal gland, muscles and pancreas) were harvested. Tissues were blotted for gamma counting on a Wizard2 2480 automatic gamma counter (Perkin Elmer, Waltham, MA). Values were corrected for decay and normalized to tissue weight to express radioactivity concentration as percentage injected dose per gram (%ID/g). […] To investigate the tracer’s distribution within different blood compartments, after gamma counting, 100 μL of blood were spun down at 2000 g for 15 min at 4 °C. Plasma (supernatant) and cells (pellet) were gamma counted and expressed as percentage of total activity. The remainder of the blood was separated using Lymphoprep density gradient medium (Nycomed Pharma, Zurich, Switzerland) following manufacturer’s instructions. Percentage of activity in mononuclear and polynuclear cells was calculated.
# [1] = liver, female C57BL/6 mice, N=3-7, read-out: Tissue radioactivity, liver
# [2] = lungs, female Apoe^-/- mice 12 weeks on Western Diet, N=3-8, read-out: Tissue radioactivity, lungs
# [3] = lungs, female C57BL/6 mice, N=3-7, read-out: Tissue radioactivity, lungs
# [4] = lymph node, female Apoe^-/- mice 12 weeks on Western Diet, N=3-8, read-out: Tissue radioactivity, lymph node
# [5] = lymph node, female C57BL/6 mice, N=3-7, read-out: Tissue radioactivity, lymph node
# [6] = muscle, female Apoe^-/- mice 12 weeks on Western Diet, N=3-8, read-out: Tissue radioactivity, muscle
# [7] = muscle, female C57BL/6 mice, N=3-7, read-out: Tissue radioactivity, muscle
# [8] = pancreas, female Apoe^-/- mice 12 weeks on Western Diet, N=3-8, read-out: Tissue radioactivity, pancreas
# [9] = pancreas, female C57BL/6 mice, N=3-7, read-out: Tissue radioactivity, pancreas
# [10] = small intestine, female Apoe^-/- mice 12 weeks on Western Diet, N=3-8, read-out: Tissue radioactivity, small intestine
# [11] = small intestine, female C57BL/6 mice, N=3-7, read-out: Tissue radioactivity, small intestine
# [12] = spleen, female Apoe^-/- mice 12 weeks on Western Diet, N=3-8, read-out: Tissue radioactivity, spleen
# [13] = spleen, female C57BL/6 mice, N=3-7, read-out: Tissue radioactivity, spleen
# [14] = stomach, female Apoe^-/- mice 12 weeks on Western Diet, N=3-8, read-out: Tissue radioactivity, stomach
# [15] = stomach, female C57BL/6 mice, N=3-7, read-out: Tissue radioactivity, stomach
# [16] = tail, female Apoe^-/- mice 12 weeks on Western Diet, N=3-8, read-out: Tissue radioactivity, tail
# [17] = tail, female C57BL/6 mice, N=3-7, read-out: Tissue radioactivity, tail
# [18] = thoracic aorta, female Apoe^-/- mice 12 weeks on Western Diet, N=3-8, read-out: Tissue radioactivity, thoracic aorta
# [19] = thoracic aorta, female C57BL/6 mice, N=3-7, read-out: Tissue radioactivity, thoracic aorta
smiles,measurement,setting,value
"C[C@@H](O)[C@H](NC(=O)[C@@H]1CSSC[C@H](NC(=O)[C@@H](Cc2ccccc2)NC(=O)CN2CCN(CC(=O)O)CCN(CC(=O)O)CCN(CC(=O)O)CC2)C(=O)N[C@@H](Cc2ccc(O)cc2)C(=O)N[C@H](Cc2c[nH]c3ccccc23)C(=O)N[C@@H](CCCCN)C(=O)N[C@@H]([C@@H](C)O)C(=O)N1)C(=O)O [[^64Cu]Cu-DOTATATE, metal not drawn]",tissue uptake at 2 h,"liver, female Apoe^-/- mice 12 weeks on Western Diet, N=3-8, read-out: Tissue radioactivity, liver",6.3 %ID/g
same,tissue uptake at 1 min,[1],10 %ID/g
same,tissue uptake at 0.5 h,[1],6.4 %ID/g
same,tissue uptake at 1 min,[2],2.1 %ID/g
same,tissue uptake at 5 min,[2],2.6 %ID/g
same,tissue uptake at 0.5 h,[2],1.6 %ID/g
same,tissue uptake at 1 h,[2],2.5 %ID/g
same,tissue uptake at 2 h,[2],2.8 %ID/g
same,tissue uptake at 5 min,[3],3.2 %ID/g
same,tissue uptake at 0.5 h,[3],1.3 %ID/g
same,tissue uptake at 1 h,[3],1.1 %ID/g
same,tissue uptake at 1 min,[4],2.6 %ID/g
same,tissue uptake at 5 min,[4],3.2 %ID/g
same,tissue uptake at 0.25 h,[4],3 %ID/g
same,tissue uptake at 0.5 h,[4],2.4 %ID/g
same,tissue uptake at 1 h,[4],2.1 %ID/g
same,tissue uptake at 1 min,[5],3 %ID/g
same,tissue uptake at 5 min,[5],4.7 %ID/g
same,tissue uptake at 0.25 h,[5],3.2 %ID/g
same,tissue uptake at 1 h,[5],1.3 %ID/g
same,tissue uptake at 2 h,[5],0.6 %ID/g
same,tissue uptake at 1 min,[6],1.2 %ID/g
same,tissue uptake at 5 min,[6],1.4 %ID/g
same,tissue uptake at 0.25 h,[6],0.6 %ID/g
same,tissue uptake at 0.5 h,[6],0.7 %ID/g
same,tissue uptake at 1 h,[6],0.4 %ID/g
same,tissue uptake at 2 h,[6],0.3 %ID/g
same,tissue uptake at 1 min,[7],2 %ID/g
same,tissue uptake at 5 min,[7],1.6 %ID/g
same,tissue uptake at 0.5 h,[7],0.5 %ID/g
same,tissue uptake at 1 h,[7],0.3 %ID/g
same,tissue uptake at 2 h,[7],0.3 %ID/g
same,tissue uptake at 1 min,[8],4.7 %ID/g
same,tissue uptake at 5 min,[8],4.1 %ID/g
same,tissue uptake at 0.25 h,[8],3.5 %ID/g
same,tissue uptake at 0.5 h,[8],3.4 %ID/g
same,tissue uptake at 1 h,[8],2.7 %ID/g
same,tissue uptake at 2 h,[8],2.6 %ID/g
same,tissue uptake at 1 min,[9],8.7 %ID/g
same,tissue uptake at 5 min,[9],5.3 %ID/g
same,tissue uptake at 0.25 h,[9],6.1 %ID/g
same,tissue uptake at 0.5 h,[9],5.8 %ID/g
same,tissue uptake at 1 h,[9],4.8 %ID/g
same,tissue uptake at 2 h,[9],2.6 %ID/g
same,tissue uptake at 1 min,[10],1.4 %ID/g
same,tissue uptake at 5 min,[10],1.2 %ID/g
same,tissue uptake at 0.5 h,[10],3.1 %ID/g
same,tissue uptake at 2 h,[10],7.2 %ID/g
same,tissue uptake at 1 min,[11],3 %ID/g
same,tissue uptake at 5 min,[11],2 %ID/g
same,tissue uptake at 0.25 h,[11],1.7 %ID/g
same,tissue uptake at 0.5 h,[11],2.6 %ID/g
same,tissue uptake at 1 h,[11],2.4 %ID/g
same,tissue uptake at 1 min,[12],2 %ID/g
same,tissue uptake at 5 min,[12],1.1 %ID/g
same,tissue uptake at 0.25 h,[12],1.2 %ID/g
same,tissue uptake at 0.5 h,[12],1.1 %ID/g
same,tissue uptake at 1 h,[12],0.8 %ID/g
same,tissue uptake at 2 h,[12],1.2 %ID/g
same,tissue uptake at 5 min,[13],1.5 %ID/g
same,tissue uptake at 0.5 h,[13],0.7 %ID/g
same,tissue uptake at 1 h,[13],0.6 %ID/g
same,tissue uptake at 2 h,[13],0.5 %ID/g
same,tissue uptake at 1 min,[14],2.1 %ID/g
same,tissue uptake at 5 min,[14],2.4 %ID/g
same,tissue uptake at 2 h,[14],5 %ID/g
same,tissue uptake at 1 min,[15],2.3 %ID/g
same,tissue uptake at 5 min,[15],2.4 %ID/g
same,tissue uptake at 0.25 h,[15],5 %ID/g
same,tissue uptake at 0.5 h,[15],7.8 %ID/g
same,tissue uptake at 1 h,[15],8 %ID/g
same,tissue uptake at 2 h,[15],3.2 %ID/g
same,tissue uptake at 5 min,[16],2.5 %ID/g
same,tissue uptake at 0.25 h,[16],2.5 %ID/g
same,tissue uptake at 0.5 h,[16],3.1 %ID/g
same,tissue uptake at 1 h,[16],2 %ID/g
same,tissue uptake at 2 h,[16],2.7 %ID/g
same,tissue uptake at 1 min,[17],3.5 %ID/g
same,tissue uptake at 5 min,[17],2.7 %ID/g
same,tissue uptake at 1 h,[17],1.6 %ID/g
same,tissue uptake at 2 h,[17],0.6 %ID/g
same,tissue uptake at 1 min,[18],2.9 %ID/g
same,tissue uptake at 5 min,[18],2.1 %ID/g
same,tissue uptake at 0.25 h,[18],2 %ID/g
same,tissue uptake at 1 h,[18],2.1 %ID/g
same,tissue uptake at 2 h,[18],2.1 %ID/g
same,tissue uptake at 1 min,[19],3.2 %ID/g
same,tissue uptake at 5 min,[19],3.1 %ID/g
same,tissue uptake at 0.25 h,[19],1.6 %ID/g
same,tissue uptake at 0.5 h,[19],1.3 %ID/g
same,tissue uptake at 1 h,[19],1.2 %ID/g
same,tissue uptake at 2 h,[19],1 %ID/g
